Assay results as given in the NIST ThermoML archive (doi:10.1016/j.jct.2004.11.017).
Numbers after ± are expanded uncertainties.

Experiment: xn = mol fraction of the nth substance listed
Settings: 101 kPa, Liquid

CC[S+]([O-])CC [diethyl sulfoxide] + O
mass density [kg/m3]
Settings | 298.15 K | 303.15 K | 308.15 K | 313.15 K | 318.15 K | 323.15 K | 328.15 K | 333.15 K | 338.15 K | 343.15 K
x1 = 0.0997 | 1027.6 ± 1.7 | 1024.2 ± 1.7 | 1020.7 ± 1.6 | 1017.1 ± 1.6 | 1013.4 ± 1.5 | 1009.6 ± 1.4 | 1005.8 ± 1.4 | 1001.8 ± 1.3 | 997.8 ± 1.3 | 993.7 ± 1.4
x1 = 0.1996 | 1038.6 ± 1.9 | 1034.2 ± 1.8 | 1029.8 ± 1.8 | 1025.4 ± 1.7 | 1020.9 ± 1.6 | 1016.3 ± 1.5 | 1011.8 ± 1.5 | 1005.9 ± 1.4 | 1001.3 ± 1.3 | 997.1 ± 1.3
x1 = 0.2517 | 1038.4 ± 1.9 | 1033.7 ± 1.8 | 1029.6 ± 1.8 | 1025 ± 1.7 | 1020.5 ± 1.6 | 1015.8 ± 1.5 | 1011.2 ± 1.5 | 1006.4 ± 1.4 | 1001.7 ± 1.3 | 996.9 ± 1.3
x1 = 0.2978 | 1037.8 ± 1.9 | 1033.3 ± 1.8 | 1028.8 ± 1.7 | 1024.2 ± 1.7 | 1019.6 ± 1.6 | 1015 ± 1.5 | 1010.3 ± 1.5 | 1005.6 ± 1.4 | 1000.8 ± 1.3 | 996 ± 1.4
x1 = 0.3481 | 1035.8 ± 1.9 | 1031.4 ± 1.8 | 1026.8 ± 1.7 | 1022.2 ± 1.6 | 1017.6 ± 1.6 | 1013 ± 1.5 | 1008.3 ± 1.4 | 1003.6 ± 1.3 | 998.9 ± 1.3 | 994.1 ± 1.4
x1 = 0.3946 | 1034.7 ± 1.8 | 1030.2 ± 1.8 | 1025.7 ± 1.7 | 1021.2 ± 1.6 | 1016.6 ± 1.6 | 1012 ± 1.5 | 1007.3 ± 1.4 | 1002.6 ± 1.3 | 997.8 ± 1.3 | 993 ± 1.4
x1 = 0.4496 | 1031.6 ± 1.8 | 1027.2 ± 1.7 | 1022.7 ± 1.7 | 1018.3 ± 1.6 | 1013.8 ± 1.5 | 1009.2 ± 1.4 | 1004.5 ± 1.4 | 999.9 ± 1.3 | 995.2 ± 1.4 | 990.5 ± 1.4
x1 = 0.5053 | 1029.6 ± 1.8 | 1025.1 ± 1.7 | 1020.6 ± 1.6 | 1016.2 ± 1.5 | 1011.7 ± 1.5 | 1007.1 ± 1.4 | 1002.5 ± 1.3 | 997.9 ± 1.3 | 993.2 ± 1.4 | 988.5 ± 1.5
x1 = 0.5962 | 1026.4 ± 1.7 | 1022.1 ± 1.6 | 1017.6 ± 1.6 | 1013.2 ± 1.5 | 1008.7 ± 1.4 | 1004.2 ± 1.4 | 999.6 ± 1.3 | 995 ± 1.4 | 990.4 ± 1.4 | 985.7 ± 1.5
x1 = 0.6971 | 1021.9 ± 1.6 | 1017.5 ± 1.6 | 1013.1 ± 1.5 | 1008.7 ± 1.4 | 1004.3 ± 1.4 | 999.8 ± 1.3 | 995.3 ± 1.4 | 990.8 ± 1.4 | 986.2 ± 1.5 | 981.7 ± 1.6
x1 = 0.8061 | 1018.2 ± 1.6 | 1013.9 ± 1.5 | 1009.6 ± 1.4 | 1005.2 ± 1.4 | 1000.8 ± 1.3 | 996.4 ± 1.3 | 991.9 ± 1.4 | 987.4 ± 1.5 | 982.9 ± 1.6 | 978.4 ± 1.6
x1 = 0.8946 | 1015.3 ± 1.5 | 1011 ± 1.5 | 1006.7 ± 1.4 | 1002.3 ± 1.3 | 997.9 ± 1.3 | 993.5 ± 1.4 | 989.1 ± 1.5 | 984.7 ± 1.5 | 980.2 ± 1.6 | 975.7 ± 1.7
x1 = 1 | 1010.2 ± 1.4 | 1005.8 ± 1.4 | 1001.4 ± 1.3 | 997 ± 1.3 | 992.6 ± 1.4 | 988.2 ± 1.5 | 983.9 ± 1.5 | 979.5 ± 1.6 | 975.1 ± 1.7 | 970.6 ± 1.8
